Structures can show the parent of a compound that is named as a salt.

With `CCN(C)CCCN1CCN(c2cc(-c3ccnc(NCc4cccc(OC)c4)n3)cc3ccc(OC)cc23)CC1` (as salt: hydrochloride) [Compound 201, 4-(4-(4-(3-(ethyl(methyl)amino)propyl)piperazin-1-yl)-6-methoxynaphthalen-2-yl)-N-(3-methoxybenzyl)pyrimidin-2-amine], the melting point (usually the temperature of the solid-liquid transition) lay within 160 to 169 °C. To `CNc1nccc(-c2cc(NCCCSC(=N)N)c3cc(OC)ccc3c2)n1` [Compound 192, 3-({7-methoxy-3-[2-(methylamino)pyrimidin-4-yl]-1-naphthyl}amino)propyl imidothiocarbamate] belongs 94 to 97 °C. To `COc1cccc(CNc2nccc(-c3cc(N4CCN(CCCN5CCCC5)CC4)c4cc(OC)ccc4c3)n2)c1` (as salt: hydrochloride) [Compound 198, 4-(6-methoxy-4-(4-(3-(pyrrolidin-1-yl)propyl)piperazin-1-yl)naphthalen-2-yl)-N-(3-methoxybenzyl)pyrimidin-2-amine] belongs 160 to 167 °C; to `COc1cccc(CCNc2nccc(-c3cc(N4CCN(c5ncnc6[nH]nc(Br)c56)CC4)c4cc(OC)ccc4c3)n2)c1` [Compound 180, 4-{4-[4-(3-bromo-1H-pyrazolo[3,4-d]pyrimidin-4-yl)piperazin-1-yl]-6-methoxy-2-naphthyl}-N-[2-(3-methoxyphenyl)ethyl]pyrimidin-2-amine], 200 to 203 °C. Turning to `COc1ccc2cc(-c3ccnc(NCCCN(C)C)n3)cc(N3CCN(c4ncnc5[nH]nc(Br)c45)CC3)c2c1` [Compound 178, N1-(4-(4-(4-(3-bromo-1H-pyrazolo[3,4-d]pyrimidin-4-yl)piperazin-1-yl)-6-methoxynaphthalen-2-yl)pyrimidin-2-yl)-N3,N3-dimethylpropane-1,3-diamine], the melting point fell in the range of 152 to 155 °C. To `CNc1nccc(-c2cc(NCCCNCCCOC)c3cc(OC)ccc3c2)n1` (as salt: HCl) [Compound 190, N-{7-methoxy-3-[2-(methylamino)pyrimidin-4-yl]-1-naphthyl}-N′-(3-methoxypropyl)propane-1,3-diamine] belongs 130 to 132 °C.

Consider `CNc1nccc(-c2cc(NC(=O)c3ccccc3)c3cc(OC)ccc3c2)n1` [Compound 185, N-{7-methoxy-3-[2-(methylamino)pyrimidin-4-yl]-1-naphthyl}benzamide], for which the melting point fell in the range of 201 to 203 °C. To `COc1ccc2cc(-c3ccnc(NCCc4ccc(OC)c(OC)c4)n3)cc(N3CCNCC3)c2c1` (as salt: HCl) [Compound 110, N-(3,4-dimethoxyphenethyl)-4-(6-methoxy-4-(piperazin-1-yl)naphthalen-2-yl)pyrimidin-2-amine] belongs 138 to 140 °C. To `COc1cccc(CNc2nccc(-c3cc(N4CCN(CCCN(C)C)CC4)c4cc(OC)ccc4c3)n2)c1` [Compound 195, 4-(4-(4-(3-(dimethylamino)propyl)piperazin-1-yl)-6-methoxynaphthalen-2-yl)-N-(3-methoxybenzyl)pyrimidin-2-amine] belongs 70 to 75 °C; to `CNc1nccc(-c2cc(NCCCNCCCN(C)C)c3cc(OC)ccc3c2)n1` [Compound 191, N′-[3-({7-methoxy-3-[2-(methylamino)pyrimidin-4-yl]-1-naphthyl}amino)propyl]-N,N-dimethylpropane-1,3-diamine], 142 to 144 °C; to `COc1cccc(CNc2nccc(-c3cc(N4CCN(CCCN5CCCCC5)CC4)c4cc(OC)ccc4c3)n2)c1` [Compound 194, 4-(6-methoxy-4-(4-(3-(piperidin-1-yl)propyl)piperazin-1-yl)naphthalen-2-yl)-N-(3-methoxybenzyl)pyrimidin-2-amine], 63 to 75 °C.

In the case of `COc1ccc2cc(-c3ccnc(N(C)C)n3)cc(NC3CCN(c4ncnc5[nH]nc(Br)c45)CC3)c2c1` [Compound 144, 4-(4-((1-(3-bromo-1H-pyrazolo[3,4-d]pyrimidin-4-yl)piperidin-4-yl)amino)-6-methoxynaphthalen-2-yl)-N,N-dimethylpyrimidin-2-amine], the melting point lay in the range of 167 to 172 °C.

(Values after patent US8173808B2, “Substituted naphthalenyl-pyrimidine compounds” (ArQule, Inc., priority 2009, dated 2012).)
